Measurements: article PMC2358886, “Evolution of pharmacologic specificity in the pregnane X receptor” (BMC Evolutionary Biology, 2008)
Read-outs that look alike come from different tables or passages of the source.

Assays:
zebrafish PXR [1] = target: T1, zebrafish PXR (Danio rerio, UniProt A5WYG8)
T1 sequence (A5WYG8 144-430): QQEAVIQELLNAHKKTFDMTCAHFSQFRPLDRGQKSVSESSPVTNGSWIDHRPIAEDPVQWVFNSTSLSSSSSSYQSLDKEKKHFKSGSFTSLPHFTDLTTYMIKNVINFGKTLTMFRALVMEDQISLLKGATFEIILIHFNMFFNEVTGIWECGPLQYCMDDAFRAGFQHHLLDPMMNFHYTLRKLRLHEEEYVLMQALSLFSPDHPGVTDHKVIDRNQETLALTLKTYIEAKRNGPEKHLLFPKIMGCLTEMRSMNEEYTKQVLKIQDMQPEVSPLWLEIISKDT

human PXR [2] = target: T2, human PXR (Homo sapiens, UniProt O75469); assay: PXR activation luciferase reporter assay, human PXR in HepG2-NTCP cells
T2 sequence (O75469 1-434): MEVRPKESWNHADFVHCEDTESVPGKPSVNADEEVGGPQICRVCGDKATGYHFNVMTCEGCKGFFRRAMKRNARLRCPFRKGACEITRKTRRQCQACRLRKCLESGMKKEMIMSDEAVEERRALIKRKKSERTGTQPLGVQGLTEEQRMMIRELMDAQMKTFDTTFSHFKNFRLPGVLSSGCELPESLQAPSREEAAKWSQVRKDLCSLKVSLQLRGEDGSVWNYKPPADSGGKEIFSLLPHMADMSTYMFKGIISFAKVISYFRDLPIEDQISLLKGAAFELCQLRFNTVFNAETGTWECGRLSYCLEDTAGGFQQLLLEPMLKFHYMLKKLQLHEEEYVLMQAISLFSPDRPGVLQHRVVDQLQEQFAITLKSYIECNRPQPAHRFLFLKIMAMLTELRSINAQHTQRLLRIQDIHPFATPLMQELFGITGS

chicken PXR [3] = target: T3, chicken PXR (Gallus gallus, UniProt Q9DFH3)
T3 sequence (Q9DFH3 1-391): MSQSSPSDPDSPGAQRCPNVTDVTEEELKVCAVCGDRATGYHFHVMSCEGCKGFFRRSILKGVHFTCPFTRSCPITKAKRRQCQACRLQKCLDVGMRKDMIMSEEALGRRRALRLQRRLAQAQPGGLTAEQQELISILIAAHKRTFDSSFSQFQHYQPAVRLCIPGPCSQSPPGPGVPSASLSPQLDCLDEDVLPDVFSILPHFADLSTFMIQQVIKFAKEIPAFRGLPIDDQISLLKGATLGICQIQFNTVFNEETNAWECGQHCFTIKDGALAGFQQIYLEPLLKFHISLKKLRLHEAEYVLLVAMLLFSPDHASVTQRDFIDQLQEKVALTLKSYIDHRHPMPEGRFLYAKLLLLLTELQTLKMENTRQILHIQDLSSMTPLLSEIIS

human PXR [4] = target: T2, human PXR; conditions: for hPXR Efficacy: human
chicken PXR [5] = target: T3, chicken PXR; assay: cell-based
HepG2 cells [6] = test system: HepG2 cells
zebrafish PXR [7] = target: T1, zebrafish PXR; assay: cell-based
HepG2 cells [8] = assay: Toxicity assays in HepG2 cells (MTT and alamar blue reduction); conditions: lowest concentration that produced significant toxicity in the HepG2 cells
rabbit PXR = target: T4, rabbit PXR (Oryctolagus cuniculus, UniProt Q9TU02); assay: PXR activation luciferase reporter assay, rabbit PXR; conditions: for Rabbit PXR efficacy, ε: relative to 50 μM 5α-pregnan-3,20-dione, assigned an efficacy of 1.0
T4 sequence (Q9TU02 1-411): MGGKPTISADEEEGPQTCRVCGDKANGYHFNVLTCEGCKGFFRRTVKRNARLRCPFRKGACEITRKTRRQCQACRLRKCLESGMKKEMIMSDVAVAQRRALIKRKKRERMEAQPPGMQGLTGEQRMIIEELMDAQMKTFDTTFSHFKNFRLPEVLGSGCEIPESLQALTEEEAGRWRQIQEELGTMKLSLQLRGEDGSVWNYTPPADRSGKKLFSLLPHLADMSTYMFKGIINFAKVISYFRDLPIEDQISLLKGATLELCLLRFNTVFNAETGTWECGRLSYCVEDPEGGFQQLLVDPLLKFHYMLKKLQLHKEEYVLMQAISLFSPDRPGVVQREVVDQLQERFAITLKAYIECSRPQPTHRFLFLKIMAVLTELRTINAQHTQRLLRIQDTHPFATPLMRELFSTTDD

mouse PXR [9] = target: T5, mouse PXR (Mus musculus, UniProt O54915); assay: cell-based
T5 sequence (O54915 1-431): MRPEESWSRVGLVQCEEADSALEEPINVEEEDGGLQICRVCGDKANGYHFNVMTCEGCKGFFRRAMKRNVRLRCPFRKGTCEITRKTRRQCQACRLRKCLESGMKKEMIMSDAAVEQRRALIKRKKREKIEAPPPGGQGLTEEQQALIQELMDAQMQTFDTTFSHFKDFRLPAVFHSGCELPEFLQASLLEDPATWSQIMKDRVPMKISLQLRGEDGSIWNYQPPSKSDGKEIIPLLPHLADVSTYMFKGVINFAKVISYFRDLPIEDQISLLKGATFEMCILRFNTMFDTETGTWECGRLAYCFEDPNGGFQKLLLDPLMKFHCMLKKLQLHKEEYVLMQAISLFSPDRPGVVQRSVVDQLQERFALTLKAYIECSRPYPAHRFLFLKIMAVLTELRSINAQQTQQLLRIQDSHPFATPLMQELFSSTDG

rat PXR [10] = target: T6, rat PXR (Rattus norvegicus, UniProt Q9R1A7); conditions: for Rat PXR efficacy, ε: relative to 20 μM pregnenolone 16α-carbonitrile, assigned an efficacy of 1.0
T6 sequence (Q9R1A7 1-431): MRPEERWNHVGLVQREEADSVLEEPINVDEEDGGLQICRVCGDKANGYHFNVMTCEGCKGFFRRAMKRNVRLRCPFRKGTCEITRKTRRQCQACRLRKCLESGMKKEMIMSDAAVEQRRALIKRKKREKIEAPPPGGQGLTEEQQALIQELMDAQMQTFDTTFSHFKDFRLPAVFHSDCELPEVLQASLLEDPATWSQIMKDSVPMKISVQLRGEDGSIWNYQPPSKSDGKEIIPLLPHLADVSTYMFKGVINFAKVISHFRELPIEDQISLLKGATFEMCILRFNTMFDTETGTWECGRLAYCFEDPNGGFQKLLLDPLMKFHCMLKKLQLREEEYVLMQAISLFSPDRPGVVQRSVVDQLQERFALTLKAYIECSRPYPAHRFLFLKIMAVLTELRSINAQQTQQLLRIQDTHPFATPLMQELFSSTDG

rat PXR [11] = target: T6, rat PXR; assay: cell-based
mouse PXR [12] = target: T5, mouse PXR
[13] = relative to 20 μM 5α-androstan-3α-ol, assigned an efficacy of 1.0
[14] = hPXR Activity, -log(EC50), EC50 in molar units, activation of human PXR
[15] = -log(EC50), EC50 in molar units
[16] = relative to 20 μM nifedipine, assigned an efficacy of 1.0
[17] = relative to 20 μM pregnenolone 16α-carbonitrile, assigned an efficacy of 1.0
[18] = zfPXR Activity, -log(EC50), EC50 in molar units, activation of zebrafish PXR

Row | Compound | zfPXR Efficacy (zebrafish PXR [1]; [13]) | EC50 (human PXR [2]; [14]) [µM] | Chicken PXR efficacy, ε (chicken PXR [3]; chicken) | hPXR Efficacy (human PXR [4]) | EC50 (chicken PXR [5]) [µM] | Toxicity (HepG2 cells [6]) | EC50 (zebrafish PXR [7]) [µM] | zfPXR Efficacy (zebrafish PXR [1]; zebrafish) | EC50 (human PXR [2]) [µM] | EC50 (mouse PXR [9]) [µM] | Rat PXR efficacy, ε (rat PXR [10]) | EC50 (rat PXR [11]) [µM] | Mouse PXR efficacy, ε (mouse PXR [12]; [17]) | EC50 (rabbit PXR) [µM] | Rabbit PXR efficacy, ε (rabbit PXR) | other results
1 | C[C@@]12CCC[C@H]1[C@@H]1CC[C@H]3C[C@H](O)CC[C@]3(C)[C@H]1CC2 [AN3, 5α-Androstan-3α-ol] | 1.00 | 6.31 | 0.85 | 0.5 | 4.17 | None | 4.57 |  |  |  |  |  |  |  |  | 
2 | C[C@]12CC[C@H](O)C[C@@H]1CC[C@@H]1[C@@H]2CC[C@]2(C)C=CC[C@@H]12 [AN21, 5α-Androst-16-en-3β-ol] |  |  | 2.99 |  | 7.24 |  | 3.31 | 2.11 | 4.79 |  |  |  |  |  |  | Toxicity (HepG2 cells [6]; human, 24 hr): 50 µM
3 | Clc1cc2c(cc1Cl)Oc1cc(Cl)c(Cl)cc1O2 [MI34, 2,3,7,8-tetrachlorodibenzo-p-dioxin] | 6.17 |  |  |  | 0.0912 |  |  |  | 0.0676 | 0.1 | 0.83 | 0.2 | 1.60 |  |  | Toxicity (HepG2 cells [8]): 10 µM; Activation of rabbit PXR (in words) (rabbit PXR): inactive; Rabbit PXR Activity (rabbit PXR; [15]): No effect; hPXR Efficacy (human PXR [2]; relative to 10 μM rifampicin, assigned an efficacy of 1.0): 1.78; Chicken PXR efficacy, ε (chicken PXR [3]; [16]): 0.06; EC50 (zebrafish PXR [7]; [18]): 0.479 µM
4 | C[C@]12CCC(=O)C[C@@H]1CC[C@@H]1[C@@H]2CC[C@]2(C)C=CC[C@@H]12 [AN22, 5α-Androst-16-en-3-one] |  |  | 0.77 |  | 10.2 |  | 2.63 | 0.68 | 3.02 |  |  |  |  |  |  | Toxicity (HepG2 cells [6]; human, 24 hr): 100 µM
5 | CC(C)CCC[C@@H](C)[C@H]1CC[C@H]2[C@@H]3[C@H](O)C[C@@H]4C[C@H](O)CC[C@]4(C)[C@H]3C[C@H](O)[C@]12C [BI023, 5β-Cholestan-3α,7α,12α-triol] |  |  | 0.27 |  | 1.29 |  |  |  |  | 1.41 | 0.72 | 2.24 | 1.23 | 3.89 | 0.37 | 
6 | C[C@H](CCC(=O)NCCS(=O)(=O)O)[C@H]1CC[C@H]2[C@@H]3[C@H](O)C[C@@H]4C[C@H](O)CC[C@]4(C)[C@H]3C[C@H](O)[C@]12C [BI022, Taurocholic acid] |  |  |  |  |  |  |  |  |  | 85.1 |  |  |  |  |  | Chicken PXR Activity (chicken PXR [3]): No effect; Rat PXR Activity (rat PXR [10]; [15]): No effect
7 | C[C@H](CCC(=O)O)[C@H]1CC[C@H]2[C@@H]3CC[C@@H]4C[C@H](O)CC[C@]4(C)[C@H]3C[C@H](O)[C@]12C [BI008, Deoxycholic acid] |  |  |  |  |  |  |  |  |  |  | 0.32 | 10 |  | 36.3 | 0.37 | Chicken PXR Activity (chicken PXR [3]): No effect; Mouse PXR Activity (mouse PXR [12]; [15]): No effect
8 | CC(=O)[C@H]1CC[C@H]2[C@@H]3CC[C@@H]4CC(=O)CC[C@]4(C)[C@H]3CC[C@]12C [PR2, 5β-Pregnan-3,20-dione] |  |  | 5.59 (ε = 0.81) | 0.97 | 2.57 | None | 0.832 | 0.85 |  | 4.37 |  | 5.75 |  | 12.6 |  | EC50 (human PXR [2]; hPXR Activity): 2.57 µM; Mouse PXR efficacy, ε (mouse PXR [12]; mouse): 5.36 (ε = 0.84)
9 | CC(CCCC(CO)COS(=O)(=O)O)[C@H]1CCC2C3C(C[C@H](O)[C@@]21C)[C@@]1(C)CC[C@@H](O)C[C@@H]1C[C@H]3O (stereo partly drawn) [BI036, 5β-Cholestan-3α,7α,12α,26-tetrol-27-sulfate] |  | 25.7 | 0.61 |  | 30.9 | None | 43.7 | 0.75 |  | 16.6 | 0.28 | 31.6 | 0.29 | 81.3 | 0.43 | Activation of zebrafish PXR (in words) (zebrafish PXR [1]; bile salts): activated; Activation of human PXR (in words) (human PXR [4]): activated
10 | C[C@]12CC[C@@H](O)C[C@@H]1CC[C@@H]1[C@@H]2CC[C@]2(C)[C@@H](O)CC[C@@H]12 [AN1, 5α-Androstan-3α,17β-diol] | 0.84 | 4.17 |  | 0.68 | 8.51 | None |  |  |  |  |  |  |  |  |  | Chicken PXR efficacy, ε (chicken PXR [3]; [16]): 2.28; EC50 (zebrafish PXR [7]; [18]): 6.46 µM
